Data on four compounds can be found in patent publication US20240049725A1, “CO[…] OTHER IN[…] AND USES THEREOF” (SYNGENTA CROP PROTECTION AG, priority 2020, published 2024).

Positions of bridges follow the written chain, without caps; N, C: chain ends. Residues, ends and D or L forms follow the SMILES beside them.

The subject of series [1] is larvae of Helicoverpa armigera. To be noted: Jennings et al, 2005; cited from earlier work.
Another series has as its system Cydia pomonella L1. The experiment in a line: artificial diet test in 24-well plate, mortality of Cydia pomonella L1 larvae. Format: in vivo. To be noted: 10000 ppm; Table E; Abbott-corrected. The protocol: An artificial diet was prepared. 1.5 ml of artificial diet was applied in a well of a 24-well plate followed by 50 μl of test solution by spraying. The well-plate was infested with 1 L1 larva of Cydia pomonella per well, after which the plate was closed with a carton filter and a metal lid. The 24-well plate was placed in a climate chamber at a temperature of 25° C., a relative humidity of 65% and with no artificial light cycle. Five wells (replicates) were assessed per treatment.

The subject of another series is Spodoptera littoralis L1. Kind of series: leaf disc spray test on Gossypium hirsutum, mortality of Spodoptera littoralis L1 larvae. Format: in vivo. To be noted: 10000 ppm, Abbott-corrected. On the procedure:
(§1) Gossypium hirsutum leaf discs with a 5 cm diameter were cut out and placed in a Petri dish which was prepared with 3 filter paper and 800 μl water. 100 μl of test solution was applied on the lower surface by spraying and dried to air. Next, the leaf was flipped and 100 μl of test solution was applied on the upper surface by spraying and dried to air. The leaf was infested with 10 L1 larvae of Spodoptera littoralis, after which the dish was closed with a cotton filter and a plastic lid. The Petri dish was placed in a climate chamber at a temperature of 25° C., a relative humidity of 65% and with no artificial light cycle. Two days after infestation 200 μl water was added to the Petri dish. Four days after infestation 500 μl water was added to the Petri dish. Three Petri dishes were assessed per treatment.

The test system of another series is Plutella xylostella L3. The experiment in a line: leaf disc spray test on Brassica chinensis, mortality of Plutella xylostella L3 larvae. Format: in vivo. The settings on record: Abbott-corrected. The protocol:
as §1, with “Brassica chinensis” for “Gossypium hirsutum”, “L3” for “L1”, “larvae (6-7 days old)” for “larvae”, “Plutella xylostella,” for “Spodoptera littoralis,”, “cycle.” for “cycle. Two days after infestation 200 μl water was added to the Petri dish.”, “150” for “500”

A further series concerns Plutella xylostella L1. The experiment in a line: leaf disc spray test on Brassica chinensis, mortality of Plutella xylostella L1 larvae. The class given is in vivo. The settings on record: Abbott-corrected. The protocol:
as §1, with “Brassica chinensis leaf discs” for “Gossypium hirsutum leaf discs”, “The leaf 3 was infested” for “The leaf was infested”, “larvae of Plutella xylostella, after which” for “larvae of Spodoptera littoralis, after which”, “light cycle. Four days” for “light cycle. Two days after infestation 200 μl water was added to the Petri dish. Four days”, “after infestation 150 μl water” for “after infestation 500 μl water”

The subject of series [2] is crustaceans, cockroaches, blow fly larvae and Helicoverpa armigera. The settings on record: in vivo; cited from earlier work.

Consider `CC(C)C[C@@H]1NC(=O)CNC(=O)[C@H](CC(N)=O)NC(=O)[C@H](CCCNC(=N)N)NC(=O)[C@H]([C@@H](C)O)NC(=O)[C@@H]2CSSC[C@@H]3NC(=O)[C@H]([C@@H](C)O)NC(=O)CNC(=O)CNC(=O)[C@H](C(C)C)NC(=O)[C@@H]4CSSC[C@H](NC(=O)[C@H]([C@@H](C)O)NC(=O)[C@H](CSSC[C@H](NC(=O)[C@H](C(C)C)NC(=O)[C@@H]5CCCN5C1=O)C(=O)NCC(=O)N[C@@H](CCC(=O)O)C(=O)N[C@@H]([C@@H](C)O)C(=O)N4)NC(=O)CNC(=O)[C@@H]1CCCN1C(=O)[C@H]([C@@H](C)O)NC(=O)[C@H](CC(N)=O)NC3=O)C(=O)N[C@@H](CO)C(=O)N[C@@H](Cc1c[nH]c3ccccc13)C(=O)N1CCC[C@H]1C(=O)N[C@@H](C(C)C)C(=O)N2` [SEQ ID NO: 1 (kB1), Kalata B1], for which the “insecticidal activity against the larvae of Helicoverpa armigera” value in series [1] is recorded as “potent insecticidal activity”. In addition, in the series on Cydia pomonella L1, the “observed mortality of Cydia pomonella L1, 1 d after infestation” value turned out to be 20%; the “observed mortality of Cydia pomonella L1, 2 d after infestation” value is reported as 20%; the “observed mortality of Cydia pomonella L1, 3 d after infestation” value came out at 20%; the “observed mortality of Cydia pomonella L1, 4 d after infestation” value is on record as 20%. For the same compound, the “observed mortality of Cydia pomonella L1, 7 d after infestation” value with Cydia pomonella L1 worked out at 20%. Further, in the series on Spodoptera littoralis L1 (Table A), the “observed mortality of Spodoptera littoralis L1, 1 d after infestation” value turned out to be 0%; the “observed mortality of Spodoptera littoralis L1, 2 d after infestation” value was 35%; the “observed mortality of Spodoptera littoralis L1, 3 d after infestation” value was 29%; the “observed mortality of Spodoptera littoralis L1, 6 d after infestation” value is given as 32%. Moreover, in the series on Spodoptera littoralis L1 (Table G), the “observed mortality of Spodoptera littoralis L1, 1 d after infestation” value is reported as 5%; the “observed mortality of Spodoptera littoralis L1, 2 d after infestation” value is recorded as 25%; the “observed mortality of Spodoptera littoralis L1, 3 d after infestation” value is given as 36%. Also, in the series on Plutella xylostella L3 (2500 ppm, Table D), the “observed mortality of Plutella xylostella L3, 1 d after infestation” value is 0%; the “observed mortality of Plutella xylostella L3, 2 d after infestation” value is given as 0%; the “observed mortality of Plutella xylostella L3, 3 d after infestation” value came out at 3%; the “observed mortality of Plutella xylostella L3, 4 d after infestation” value was found to be 20%. In the series with Plutella xylostella L3 (5000 ppm, Table D), the “observed mortality of Plutella xylostella L3, 1 d after infestation” value was determined as 0%; the “observed mortality of Plutella xylostella L3, 2 d after infestation” value turned out to be 0%; the “observed mortality of Plutella xylostella L3, 3 d after infestation” value amounted to 3%; the “observed mortality of Plutella xylostella L3, 4 d after infestation” value came out at 37%. Further, in the series on Plutella xylostella L3 (5000 ppm, Table F), the “observed mortality of Plutella xylostella L3, 1 d after infestation” value was 0%; the “observed mortality of Plutella xylostella L3, 2 d after infestation” value came to 0%; the “observed mortality of Plutella xylostella L3, 3 d after infestation” value stood at 22%. In addition, in the series on Plutella xylostella L1 (625 ppm, Table B1), the “observed mortality of Plutella xylostella L1, 1 d after infestation” value amounted to 0%; the “observed mortality of Plutella xylostella L1, 2 d after infestation” value is listed as 0%; the “observed mortality of Plutella xylostella L1, 3 d after infestation” value was 3%; the “observed mortality of Plutella xylostella L1, 4 d after infestation” value is reported as 14%. Also, in the series on Plutella xylostella L1 (625 ppm, Table B1), the “observed mortality of Plutella xylostella L1, 7 d after infestation” value came to 17%. Further, in the series on Plutella xylostella L1 (625 ppm, Table C), the “observed mortality of Plutella xylostella L1, 1 d after infestation” value is on record as 0%; the “observed mortality of Plutella xylostella L1, 2 d after infestation” value is recorded as 11%; the “observed mortality of Plutella xylostella L1, 3 d after infestation” value was determined as 9%; the “observed mortality of Plutella xylostella L1, 4 d after infestation” value is listed as 22%. For the same compound, the “observed mortality of Plutella xylostella L1, 6 d after infestation” value in the series on Plutella xylostella L1 (625 ppm, Table C) amounted to 20%.

As for `CC[C@H](C)[C@@H]1NC(=O)[C@@H]2CCCN2C(=O)[C@H](Cc2c[nH]c3ccccc23)NC(=O)[C@H]([C@@H](C)O)NC(=O)[C@@H]2CSSC[C@@H]3NC(=O)[C@H]([C@@H](C)O)NC(=O)[C@H](CCC(=O)O)NC(=O)CNC(=O)[C@@H]4CSSC[C@H](NC(=O)CNC(=O)[C@@H]5CCCN5C(=O)[C@H]([C@@H](C)O)NC(=O)[C@H](CC(N)=O)NC(=O)[C@H](CSSC[C@H](NC1=O)C(=O)N[C@@H]([C@@H](C)O)C(=O)N[C@@H](CCCNC(=N)N)C(=O)N[C@@H](CC(=O)O)C(=O)NCC(=O)N[C@@H](CC(C)C)C(=O)N1CCC[C@H]1C(=O)N[C@@H](C(C)C)C(=O)N4)NC(=O)[C@H]([C@@H](C)O)NC(=O)CNC(=O)CNC(=O)[C@H](Cc1ccccc1)NC3=O)C(=O)N[C@@H](CO)C(=O)N2` [SEQ ID NO: 2 (kB2), Kalata B2] (cyclo(CFGGTCNTPGCSCTWPICTRDGLPVCGET); disulfide 1-13, 6-18, 11-26 (inferred); ring closure inferred), in series [1], the “insecticidal activity against the larvae of Helicoverpa armigera” value is “potent insecticidal activity”. Besides, in the series on Plutella xylostella L1 (157 ppm, Table B2), the “observed mortality of Plutella xylostella L1, 1 d after infestation” value was determined as 0%; the “observed mortality of Plutella xylostella L1, 2 d after infestation” value was 0%; the “observed mortality of Plutella xylostella L1, 3 d after infestation” value was determined as 0%; the “observed mortality of Plutella xylostella L1, 4 d after infestation” value is given as 0%. For the same compound, in the series on Plutella xylostella L1 (157 ppm, Table B2), the “observed mortality of Plutella xylostella L1, 7 d after infestation” value is recorded as 0%. Moreover, in the series with Plutella xylostella L1 (625 ppm, Table C), the “observed mortality of Plutella xylostella L1, 1 d after infestation” value came out at 0%; the “observed mortality of Plutella xylostella L1, 2 d after infestation” value came out at 0%; the “observed mortality of Plutella xylostella L1, 3 d after infestation” value was found to be 4%; the “observed mortality of Plutella xylostella L1, 4 d after infestation” value came out at 4%. Also, the “observed mortality of Plutella xylostella L1, 6 d after infestation” value in the series on Plutella xylostella L1 (625 ppm, Table C) is given as 0%.

For the compound `CC(C)[C@H](NC(=O)[C@H](CCCCN)NC(=O)[C@@H]1CCCN1C(=O)CNC(=O)[C@H](CO)NC(=O)[C@@H]1CSSC[C@@H]2NC(=O)[C@@H]3CCCN3C(=O)[C@@H]3CSSC[C@H](NC(=O)CNC(=O)CNC(=O)[C@H](Cc4c[nH]c5ccccc45)NC(=O)[C@H](Cc4ccc(O)cc4)NC2=O)C(=O)N2CCC[C@H]2C(=O)N[C@@H](Cc2c[nH]c4ccccc24)C(=O)NCC(=O)N[C@@H](CCC(N)=O)C(=O)N[C@@H](CC(N)=O)C(=O)N[C@@H](CSSC[C@H](NC(=O)[C@H](CO)NC(=O)[C@@H](N)CCCNC(=N)N)C(=O)N3)C(=O)N[C@@H](Cc2ccc(O)cc2)C(=O)N2CCC[C@H]2C(=O)N[C@@H](CCC(=O)O)C(=O)NCC(=O)N1)C(=O)O` [SEQ ID NO: 4 (Av3), Av3], in series [2], the “toxicity to crustaceans, cockroaches, blow fly larvae and Helicoverpa armigera” value is recorded as “toxic”.

In the case of `CC(C)C[C@@H]1NC(=O)CNC(=O)[C@H](CC(N)=O)NC(=O)[C@H](CCCNC(=N)N)NC(=O)[C@H]([C@@H](C)O)NC(=O)[C@@H]2CSSC[C@@H]3NC(=O)[C@H]([C@@H](C)O)NC(=O)CNC(=O)CNC(=O)[C@H](C(C)C)NC(=O)[C@@H]4CSSC[C@H](NC(=O)[C@H]([C@@H](C)O)NC(=O)[C@H](CSSC[C@H](NC(=O)[C@H](C(C)C)NC(=O)[C@@H]5CCCN5C1=O)C(=O)NCC(=O)N[C@@H](CCC(=O)O)C(=O)N[C@@H]([C@@H](C)O)C(=O)N4)NC(=O)CNC(=O)[C@@H]1CCCN1C(=O)[C@H]([C@@H](C)O)NC(=O)[C@H](CC(N)=O)NC3=O)C(=O)N[C@@H](CO)C(=O)N[C@@H](Cc1c[nH]c3ccccc13)C(=O)N1CCC[C@H]1C(=O)N[C@@H](CCCCN)C(=O)N2` [SEQ ID NO: 6 (kB1[V25K]), Mutated kB1 (kB1[V25K])] (cyclo(CGETCVGGTCNTPGCTCSWPKCTRNGLPV); disulfide 1-15, 5-17, 10-22 (inferred); ring closure inferred), in the series on Plutella xylostella L1 (625 ppm, Table C), the “observed mortality of Plutella xylostella L1, 1 d after infestation” value was determined as 0%; the “observed mortality of Plutella xylostella L1, 2 d after infestation” value came to 0%; the “observed mortality of Plutella xylostella L1, 3 d after infestation” value was 0%; the “observed mortality of Plutella xylostella L1, 4 d after infestation” value was 0%. The “observed mortality of Plutella xylostella L1, 6 d after infestation” value with Plutella xylostella L1 (625 ppm, Table C) is 0%.
